Data on one substance can be found in PMC6560211, “ApoAI-derived peptide increases glucose tolerance and prevents formation of atherosclerosis in mice” (Diabetologia, 2019).

No end group written: not given here.

The experiment has as its system Akt and AMPK signalling. Nature of the experiment: Tissue signalling by western blotting. To be noted: soleus muscle, heart muscle and adipose depots in lean mice; 12 mg/kg i.p., 2.5 h; n=4. It is filed as in vivo, mouse. The protocol: Soleus, heart and fat samples were collected from male C57BL/6NTac mice (Taconic, Ejby, Denmark) after 12 h fasting at 9 weeks of age. The effect of RG54 on Akt and AMPK signalling in vivo was then measured by western blot using the following antibodies (all sourced from Cell Signaling Technology/Bionordika, Stockholm, Sweden): pAKT (#4060, 1:2000), Akt (#4691, 1:1000), pAMPK (#2535, 1:1000), AMPK (#2603, 1:1000) and GAPDH (#D16H11, 1:1000). All antibodies were diluted in Tris-buffered saline (154 mmol/l NaCl) with Tween-20 containing 1% BSA and were validated by the manufacturer. See ESM Methods for more details.
In vitro: glucose uptake measurements
C2C12 […] myoblasts (ATCC #CRL-1772) were grown in DMEM (ATCC) supplemented with 10% FBS (Sigma) and 1% Penicillin, Streptomycin and Amphotericin B (Invitrogen) and maintained at 37°C and 5% CO2. Differentiation to myotubes was achieved by switching from growth media to 2% FBS DMEM for 7 days. […]
No statistical methods were used to predetermine sample sizes, but sample sizes are similar to those reported in the field. […] Group allocation was blinded for all mouse work when possible (such as collection of blood or tissues, sample quantification and analysis, and atherosclerosis scoring). […]
protein concentrations were analysed with Bradford protein assay. […]
For orientation: Immunoblotting shows a protein as a band on a membrane.

For “Ac-AEYHAKATEHLSTLSEKAKPALEDLRQGLLPVLESFKVSFLSALEEYTKKLNTQ [RG54]”, the “AMPK and Akt phosphorylation” value is “minor to no changes”.
